Each structure is given as a SMILES string.

The data set can be described thus: gradient 5% acetonitrile 3 min, to 50% in 2 min, to 85% in 15 min, held 3 min, 100 µL/min. The conditions noted are these: column: Zorbax Extend-C18 2.1 x 50 mm; eluents: water / acetonitrile, 0.1% formic acid. The method in brief:
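Pure standards were run in mixtures of ~100 molecules by HPLC coupled to a quadrupole time-of-flight mass spectrometer. The column was a Zorbax Extend-C18 (2.1 × 50 mm, 1.8 μm) at 100 μL/min, with water and acetonitrile each containing 0.1% formic acid, in positive and negative ionization mode. Dead and dwell volumes were 40 μL and 900 μL. Retention time was taken from computationally picked adduct peaks, each manually inspected, with data collected over 3 months.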
The compound `O=C(CCc1cc2ccccc2[nH]c1=O)NCCN1CCCCCC1` gave an RP-LC retention time of 595 s. Take `COCCn1cc(CCNC(=O)Nc2cc(C)cc(C)c2)c2cccnc21`: the RP-LC retention time came out at 776 s.

Consider `Cc1nc(-c2ccc3c(c2)CCN3C(=O)Cc2cccc(F)c2)cs1`, for which the RP-LC retention time turned out to be 991 s. In the case of `COc1ccc(NC(=O)Cn2nc3nc(N4CCCCC4C)ccn3c2=O)cc1` (centres undefined) it was 755 s.

`Cc1nn(-c2ccccc2)c(C)c1S(=O)(=O)N1CCC(C(=O)Nc2ccc(C#N)cc2)CC1`: the RP-LC retention time was found to be 938 s.

`O=c1c2cc3c(cc2nc(SCc2nc(-c4ccccc4)no2)n1CC1CCCO1)OCO3` (centres undefined) gave an RP-LC retention time of 1100 s.

In turn, `CCCc1nnc(NC(=O)C2CC(=O)N(CCc3c[nH]c4ccc(Cl)cc34)C2)s1` (centres undefined) registered an RP-LC retention time of 764 s. With `CCOc1nc2ccccc2nc1N1CCCC(C(=O)Nc2cc(Cl)ccc2C)C1` (centres undefined), the RP-LC retention time amounted to 1310 s. In the case of `CC(C)NC(=O)C1CCCN(C(=O)Nc2ccc(S(=O)(=O)N3CCCCCC3)s2)C1` (centres undefined) it was 827 s; in that of `CCn1cc(C(=O)Nc2ccc(Cl)cc2)c(S(=O)(=O)N2CCSCC2)n1`, 892 s. To `CCCCn1cc(S(=O)(=O)Nc2cccc(C)c2)c2cccnc21` belongs 976 s. In the case of `O=C(Nc1ccc2c(c1)OCO2)C(=O)c1cccn1Cc1ccc(F)cc1`, the RP-LC retention time was found to be 1050 s.

For `COC(=O)CNC(=O)c1sc2ncccc2c1-n1cccc1`, the RP-LC retention time is 736 s. In the case of `CCC(=O)N1CCC(COc2ccc(C(=O)NC(C)C)cc2)CC1` it was 719 s; in that of `CCOC(=O)c1cccc(NC(=O)N2CCC3(CC2)NC(=O)c2ccccc2O3)c1`, 804 s. In the case of `Cn1cc2c(N3CCSCC3)nc(C(=O)NCc3ccc(N4CCCC4)cc3)nc2n1` it was 699 s; in that of `C=CCN1C(=O)COc2ccc(-c3csc(NC(=O)CCC4CCCCC4)n3)cc21`, 1210 s; in that of `Cc1cc(-c2nc3ccccc3s2)ccc1N`, 880 s. For `COC[C@@H]1[C@H](C(=O)NCCC(C)C)CCC(=O)N1C`, the RP-LC retention time was 643 s. In the case of `COc1ccccc1CNc1ncc(C(=O)O)c(C(C)C)n1` it was 898 s. As for `O=c1ccc(-c2ccccc2Cl)nn1Cc1nc(-c2ccc3c(c2)OCO3)no1`, the RP-LC retention time came to 996 s.

As to `CCSc1nnc(-c2nn(C)c3c2CN(C(=O)c2ccccc2F)CC3)n1C`, the RP-LC retention time was 732 s. In the case of `Cc1nn(-c2ccc(N3CCCCC3)nn2)c(C)c1CCC(=O)NCCc1ccco1` it was 660 s; in that of `O=c1ccn2c(n1)SC(c1ccccc1)C2` (centres undefined), 655 s; in that of `CC(C)CNC(=O)C1CCN(c2nc3ccc(-c4cccnc4)nc3s2)CC1`, 640 s.

Compound `CN(CC1CCOCC1)S(=O)(=O)Cc1cccc(Cl)c1` displayed an RP-LC retention time of 835 s. Regarding `Cc1cc(-c2nn3c(C4CCCCC4)nnc3s2)c2ccccc2n1`, the RP-LC retention time worked out at 949 s. In the case of `Cc1cnc(-c2ccncc2)n1C1CCN(S(=O)(=O)c2ccc3c(c2)CCC3)C1` (centres undefined) it was 605 s.

For `Cc1ccccc1NS(=O)(=O)c1cc2c(s1)CCN(C(=O)C1CC1)C2`, the RP-LC retention time came to 822 s. In the case of `Cc1ccccc1-c1nc2cnccn2c1NCCC(=O)NC(C)C` it was 605 s; in that of `CCN(CC)c1ccc(C2C(C#N)=C(N)Oc3n[nH]c(C)c32)cc1` (centres undefined), 546 s; in that of `Cc1nnc2ccc(-c3noc(-c4ccc5c(c4)OCO5)n3)cn12`, 871 s. In the case of `COC(=O)c1ccccc1NC(=O)Cn1c(=O)c(CCC(=O)NCC(C)C)nc2ccccc21` it was 878 s; in that of `Cn1c(=O)sc2cc(S(=O)(=O)N3CCC(C(=O)Nc4ccccn4)CC3)ccc21`, 684 s.

The values are drawn from the METLIN SMRT retention time set (Domingo-Almenara et al. 2019).
